Assay results taken from patent US6528041B2, “Process for the preparation of 1-Propyl-2, 4, 5-trimethoxybenzene from toxic β-asarone of acorus calamus or from crude calamus oil containing β-asarone” (Council of Scientific and Industrial Research, priority 2000, dated 2003).

Experiments:
animals = details: cited from earlier work
albino mice = assay: acute toxicity test for maximum tolerance dose (MTD) as a single dose; assay type: in vivo; details: for maximum tolerant doses (MTD): albino mice (25±2 g), intraperitoneal single dose, observed for 24 hr
From the text: There has been a lot of research on the effect of the substituents and functional groups which make a substance toxic or eliminate the toxicity. Any chemical substance that is electrophilic or metabolized to electrophilic species are often quite toxic, because electrophilic substances can react covalently with nucleophilic substituents of cellular macromolecules such as DNA, RNA, enzymes and proteins. These irreversible covalent interactions with important cellular macromolecules interfere with the macromolecule's function and can lead to a variety of toxic effects including cancer, hepatotoxicity, reproductive toxicity and developmental toxicity. It has been realised that the side chain of β-asarone contains carbon-carbon double bond, which can be metabolized to epoxide. The epoxide so formed is highly electrophilic and is capable of interacting with biological tissues, and could therefore, be the reason for the toxicity of β-asarone. In view of the above fact, it was possible to reduce the toxicity of β-asarone by hydrogenating the side olefinic bond into 1-propyl-2,4,5-trimethoxybenzene having a single bond as a side chain. The toxicity of the reduced calamus oil as well as of 1-Propyl-2,4,5-trimethoxy-benzene was tested. Toxicity test was performed on albino mice (body weight 25±2 g). […] Where the initial pilot dose was lethal, the sample was diluted. This was the acute toxicity test for maximum tolerance dose (MTD) as a single dose. […] It must be noted that further reduction in toxicity is possible by further dilution as the odor intensity of 1-Propyl-2,4,5-trimethoxybenzene and reduced calamus oil is substantially stronger than both β-asarone and calamus oil.

human lymphocytes = human lymphocytes in-vitro after metabolic activation; cited from earlier work
[1] = system: [3H] spiperone binding sites; details: in vitro; cited from earlier work
[2] = system: [3H] raclopride binding sites; details: in vitro; cited from earlier work
rats = details: cited from earlier work

C/C=C\c1cc(OC)c(OC)cc1OC [β-asarone, cis-2,4,5-trimethoxy-1-propenylbenzene]
tumour induction (animals; after oral administration): induce tumours in the duodenal region | carcinogenicity (animals; animals, higher percentage of β-asarone): carcinogenic | maximum tolerant doses (MTD) (albino mice): 0.12 ml/kg b.w. | chromosome damaging effect (human lymphocytes): chromosome damaging effect

CCCc1cc(OC)c(OC)cc1OC [1-Propyl-2,4,5-trimethoxybenzene]
toxicity relative to the unreduced starting material (times less toxic) (albino mice; 1-Propyl-2,4,5-trimethoxybenzene vs β-asarone, reduced calamus oil vs calamus oil, from MTD in albino mice): nearly five times and five | maximum tolerant doses (MTD) (albino mice): 0.56 ml/kg b.w.

CCCc1cc(OC)c(OC)c(C(=O)NCC2CCCN2CC)c1O (stereo not drawn) [salicylamide derivative, 5,6-dimethoxy-N[(1-ethyl-2-pyrrolidinyl)methyl]-3-propylsalicylamide]
affinity for [3H] spiperone binding sites [1]: high and stereoselective affinity | affinity for [3H] raclopride binding sites [2]: high and stereoselective affinity

C/C=C/c1cc(OC)c(OC)cc1OC [α-Asarone]
lethality (rats): fatal
